# Experimental data reported in publication PMC11417675, “Systematic Evaluation of Tyrosine Kinase Inhibitors as OATP1B1 Substrates Using a Competitive Counterflow Screen” (Cancer Research Communications, 2024).
# Read-outs that look alike come from different tables or passages of the source.
# Experiments:
# OATP1B1 [1] = conditions: cited from earlier work; for reported to inhibit OATP1B1: literature reports, ref not given
# OATP1B1 [2] = biological target: T1, OATP1B1 (Homo sapiens, UniProt Q9Y6L6); assay: Competitive counterflow (CCF) assay, efflux of preloaded [3H]-EβG in OATP1B1-overexpressing HEK293 cells; conditions: for efflux of preloaded radiolabeled EβG induced by control substrates: 100 μmol/L, 30 min, after 1 h preload with 0.01 μmol/L [3H]-EβG; for hit in CCF assay (efflux >50% relative to EβG): at all three tested concentrations (1, 10, 100 μmol/L)
# T1 sequence (Q9Y6L6 1-691): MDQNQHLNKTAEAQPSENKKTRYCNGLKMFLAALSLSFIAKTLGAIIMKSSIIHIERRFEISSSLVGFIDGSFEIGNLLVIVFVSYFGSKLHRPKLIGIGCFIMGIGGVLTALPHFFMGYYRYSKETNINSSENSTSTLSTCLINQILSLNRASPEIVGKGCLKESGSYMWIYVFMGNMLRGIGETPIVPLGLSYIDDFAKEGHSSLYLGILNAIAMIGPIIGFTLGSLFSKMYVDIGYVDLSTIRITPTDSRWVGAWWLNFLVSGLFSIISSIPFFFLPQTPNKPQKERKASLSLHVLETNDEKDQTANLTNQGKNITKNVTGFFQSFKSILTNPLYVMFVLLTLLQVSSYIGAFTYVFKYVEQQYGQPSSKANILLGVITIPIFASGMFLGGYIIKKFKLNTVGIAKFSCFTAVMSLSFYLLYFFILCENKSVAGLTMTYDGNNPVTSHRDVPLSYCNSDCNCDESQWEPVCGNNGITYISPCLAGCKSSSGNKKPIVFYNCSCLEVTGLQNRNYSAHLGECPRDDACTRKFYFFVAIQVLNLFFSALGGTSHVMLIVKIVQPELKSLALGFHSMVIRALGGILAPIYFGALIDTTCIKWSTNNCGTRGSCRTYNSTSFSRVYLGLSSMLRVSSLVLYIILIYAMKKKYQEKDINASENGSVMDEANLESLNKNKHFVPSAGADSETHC
# Description: Cellular accumulation assays were performed in human embryonic kidney cells (HEK293; RRID: CVCL_0045) that were genetically engineered to overexpress human OATP1B1 ([23]–[25]). Cell lines were authenticated by Applied Biosystems AmpFISTR Identifiler testing with PCR amplification. […] All cells were used within passage 30 and verified to be Mycoplasma-free using the MycoAlert Mycoplasma Detection Kit (Lonza). At 80% to 90% confluency, cells were seeded on poly-D-lysine–coated 96-well plates 24 hours prior to the assay (2,500 cells/well), and expression of OATP1B1 was induced with 1 μg/mL doxycycline in phenol red–free DMEM.
# The CCF assay uses OATP1B1-overexpressing HEK293 cells seeded and cultured as described above. During the study, cells were preincubated at room temperature (∼ 20°C) with 0.01 μmol/L EβG in prewarmed serum-free and phenol red–free DMEM for 1 hour. Following preincubation, each well was spiked with 1 μL of a stock solution containing 0.1, 1, or 10 mmol/L of positive control (EβG), negative control (glucose), test compound dissolved in Dimethylsulfoxide (DMSO), or DMSO only as a vehicle control. Following a 30-minute after incubation with a test compound, the assay was stopped by three consecutive washes with PBS at 4°C. Finally, cells were solubilized with 150 μL of 1% Triton X-100 in PBS for 2 hours at room temperature under constant agitation. A volume of 100 μL of cell lysate was transferred to clear-bottom 96-well isoplates, 200 μL of MicroScint-PS (PerkinElmer) scintillation fluid was added to each sample-containing well, and the plate was subsequently vortex-mixed for 30 seconds. Total radioactivity was determined on a MicroBeta microplate scintillation counter (PerkinElmer), and the resulting counts were then normalized to total protein as determined using a Pierce protein assay (Thermo Fisher Scientific).
# OCTN2 = tested on: OCTN2; set-up: method as in PMID#25165131; conditions: General Comments; ref PMID#25165131; cited from earlier work
# OATP2B1 = conditions: General Comments; ref PMID#25165131; cited from earlier work
# OATP1A2 = conditions: General Comments; ref PMID#25165131; cited from earlier work
# VEGFR2 = biological target: T2, VEGFR2 (Homo sapiens, UniProt P35968); assay: IP-based VEGFR kinase assay (ADP-Glo) in OATP1B1-overexpressing vs vector control HEK293 cells; format: cell-based; conditions: 10 μmol/L, 1 h; OATP1B1-overexpressing cells compared with control cells not overexpressing OATP1B1
# T2 construct: expressed in transfected cells; host or cells: HEK293 (OATP1B1-overexpressing or empty vector)
# T2 sequence (P35968 20-1356, species assumed): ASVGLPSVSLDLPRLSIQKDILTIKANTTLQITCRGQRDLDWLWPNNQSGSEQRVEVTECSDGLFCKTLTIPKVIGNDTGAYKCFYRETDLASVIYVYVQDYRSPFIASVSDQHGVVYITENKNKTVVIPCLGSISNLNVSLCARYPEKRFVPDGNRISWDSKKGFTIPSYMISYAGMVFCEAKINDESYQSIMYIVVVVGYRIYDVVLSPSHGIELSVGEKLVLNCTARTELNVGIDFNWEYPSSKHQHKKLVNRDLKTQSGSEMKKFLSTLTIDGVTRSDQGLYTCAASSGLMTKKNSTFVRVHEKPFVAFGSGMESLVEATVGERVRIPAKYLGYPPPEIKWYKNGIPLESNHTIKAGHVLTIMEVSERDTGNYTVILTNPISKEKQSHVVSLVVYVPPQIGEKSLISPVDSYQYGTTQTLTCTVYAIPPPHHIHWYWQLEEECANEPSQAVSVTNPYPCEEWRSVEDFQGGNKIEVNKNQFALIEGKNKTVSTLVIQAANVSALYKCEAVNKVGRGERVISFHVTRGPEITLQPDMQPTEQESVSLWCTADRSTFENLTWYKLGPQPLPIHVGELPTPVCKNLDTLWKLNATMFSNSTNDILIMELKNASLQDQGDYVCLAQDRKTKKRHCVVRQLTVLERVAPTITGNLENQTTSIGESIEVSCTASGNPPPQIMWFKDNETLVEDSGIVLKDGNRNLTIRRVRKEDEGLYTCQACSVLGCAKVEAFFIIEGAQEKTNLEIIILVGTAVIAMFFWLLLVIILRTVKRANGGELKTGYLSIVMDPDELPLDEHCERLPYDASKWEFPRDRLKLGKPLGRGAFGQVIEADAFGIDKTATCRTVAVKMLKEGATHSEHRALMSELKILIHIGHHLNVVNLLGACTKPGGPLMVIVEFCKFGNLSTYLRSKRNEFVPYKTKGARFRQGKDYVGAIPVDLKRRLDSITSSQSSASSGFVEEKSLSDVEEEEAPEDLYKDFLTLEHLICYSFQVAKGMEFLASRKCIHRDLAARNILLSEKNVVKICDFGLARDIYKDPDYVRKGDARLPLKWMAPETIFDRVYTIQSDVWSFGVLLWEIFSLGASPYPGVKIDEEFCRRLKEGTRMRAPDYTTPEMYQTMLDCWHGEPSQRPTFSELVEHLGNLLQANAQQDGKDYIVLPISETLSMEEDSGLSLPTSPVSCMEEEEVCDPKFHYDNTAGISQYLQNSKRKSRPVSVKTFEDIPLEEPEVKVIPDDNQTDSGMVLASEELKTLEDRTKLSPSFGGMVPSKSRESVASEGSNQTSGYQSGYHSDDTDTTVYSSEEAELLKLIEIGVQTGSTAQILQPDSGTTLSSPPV
smiles,measurement,setting,value
CNC(=O)c1ccccc1Sc1ccc2c(/C=C/c3ccccn3)n[nH]c2c1 [Axitinib],previously claimed to be substrates of OATP1B1,OATP1B1 [1],substrates of OATP1B1
same,pattern of efflux vs concentration in CCF assay,"OATP1B1 [2]; 1, 10 and 100 μmol/L",solely at lower concentrations
COc1cc2nccc(Oc3ccc(NC(=O)C4(C(=O)Nc5ccc(F)cc5)CC4)cc3)c2cc1OC [Cabozantinib],pattern of efflux vs concentration in CCF assay,"OATP1B1 [2]; 1, 10 and 100 μmol/L",solely at lower concentrations
Cc1cc(Nc2ncc(Cl)c(Nc3ccccc3S(=O)(=O)C(C)C)n2)c(OC(C)C)cc1C1CCNCC1 [Ceritinib],pattern of efflux vs concentration in CCF assay,"OATP1B1 [2]; 1, 10 and 100 μmol/L",clearly dependent on concentration
O=C(c1ccc(F)c(F)c1Nc1ccc(I)cc1F)N1CC(O)([C@@H]2CCCCN2)C1 [Cobimetinib],pattern of efflux vs concentration in CCF assay,"OATP1B1 [2]; 1, 10 and 100 μmol/L",clearly dependent on concentration
C[C@@H](Oc1cc(-c2cnn(C3CCNCC3)c2)cnc1N)c1c(Cl)ccc(F)c1Cl [Crizotinib],previously claimed to be substrates of OATP1B1,OATP1B1 [1],substrates of OATP1B1
same,pattern of efflux vs concentration in CCF assay,"OATP1B1 [2]; 1, 10 and 100 μmol/L",clearly dependent on concentration
CC(C)(C)c1nc(-c2cccc(NS(=O)(=O)c3c(F)cccc3F)c2F)c(-c2ccnc(N)n2)s1 [Dabrafenib],pattern of efflux vs concentration in CCF assay,"OATP1B1 [2]; 1, 10 and 100 μmol/L",solely at lower concentrations
Cc1nc(Nc2ncc(C(=O)Nc3c(C)cccc3Cl)s2)cc(N2CCN(CCO)CC2)n1 [Dasatinib],pattern of efflux vs concentration in CCF assay,"OATP1B1 [2]; 1, 10 and 100 μmol/L",solely at lower concentrations
"C[C@]12CC[C@@H]3c4ccc(OS(=O)(=O)O)cc4CC[C@H]3[C@@H]1CCC2=O [E3S, estrone-3-sulfate]",efflux of preloaded radiolabeled EβG induced by control substrates,OATP1B1 [2],induced significant efflux
COC(=O)N[C@@H](C)CNc1nccc(-c2cn(C(C)C)nc2-c2cc(Cl)cc(NS(C)(=O)=O)c2F)n1 [Encorafenib],reported to inhibit OATP1B1,OATP1B1 [1],reported to inhibit OATP1B1
"C[C@]12CC[C@@H]3c4ccc(O)cc4CC[C@H]3[C@@H]1CC[C@@H]2O[C@@H]1O[C@H](C(=O)O)[C@@H](O)[C@H](O)[C@H]1O [EβG, estradiol [6,7-^3H(N)]-17β-D-glucuronide]",efflux of preloaded radiolabeled EβG induced by control substrates,OATP1B1 [2],induced significant efflux
COc1cc(Nc2ncc(F)c(Nc3ccc4c(n3)N(COP(=O)(O)O)C(=O)C(C)(C)O4)n2)cc(OC)c1OC [Fostamatinib],hit in CCF assay (efflux >50% relative to EβG),OATP1B1 [2],hits
CS(=O)(=O)CCNCc1ccc(-c2ccc3ncnc(Nc4ccc(OCc5cccc(F)c5)c(Cl)c4)c3c2)o1 [Lapatinib],pattern of efflux vs concentration in CCF assay,"OATP1B1 [2]; 1, 10 and 100 μmol/L",solely at lower concentrations
CCOc1cc2ncc(C#N)c(Nc3ccc(OCc4ccccn4)c(Cl)c3)c2cc1NC(=O)/C=C/CN(C)C [Neratinib],OCTN2 inhibition (in words),OCTN2,No inhibition of OATP1B1 and OCTN2 was observed at concentrations up to 10 µM
same,IC50,OATP2B1,2680 nM
same,IC50,OATP1A2,390 nM
Cc1cn(-c2cc(NC(=O)c3ccc(C)c(Nc4nccc(-c5cccnc5)n4)c3)cc(C(F)(F)F)c2)cn1 [Nilotinib],pattern of efflux vs concentration in CCF assay,"OATP1B1 [2]; 1, 10 and 100 μmol/L",solely at lower concentrations
COC(=O)c1ccc2c(c1)NC(=O)/C2=C(\Nc1ccc(N(C)C(=O)CN2CCN(C)CC2)cc1)c1ccccc1 [Nintedanib],pattern of efflux vs concentration in CCF assay,"OATP1B1 [2]; 1, 10 and 100 μmol/L",clearly dependent on concentration
C=CC(=O)Nc1cc(Nc2nccc(-c3cn(C)c4ccccc34)n2)c(OC)cc1N(C)CCN(C)C [Osimertinib],pattern of efflux vs concentration in CCF assay,"OATP1B1 [2]; 1, 10 and 100 μmol/L",clearly dependent on concentration
Cc1ccc(Nc2nccc(N(C)c3ccc4c(C)n(C)nc4c3)n2)cc1S(N)(=O)=O [Pazopanib],previously claimed to be substrates of OATP1B1,OATP1B1 [1],substrates of OATP1B1
same,reported to inhibit OATP1B1,OATP1B1 [1],reported to inhibit OATP1B1
same,VEGFR kinase activity after pazopanib,VEGFR2,markedly reduced kinase activity
FC(F)(F)c1ccc(CNc2ccc(Cc3c[nH]c4ncc(Cl)cc34)cn2)cn1 [Pexidartinib],pattern of efflux vs concentration in CCF assay,"OATP1B1 [2]; 1, 10 and 100 μmol/L",solely at lower concentrations
Cc1ccc(C(=O)Nc2ccc(CN3CCN(C)CC3)c(C(F)(F)F)c2)cc1C#Cc1cnc2cccnn12 [Ponatinib],Interaction: Substrate OATP1B1,OATP1B1 [1],N
same,OATP1B1 inhibition (in words),OATP1B1 [1],"Inhibits P-gp( IC50 =0.49uM), BCRP (IC50 = 0.013 µM). Did not inhibit OATP1B1, OATP1B3, OCT1, OCT2, OAT1, or OAT3. Not a substrate of OATP1B1, OATP1B3, or OCT1."
same,OATP1B1 substrate (in words),OATP1B1 [1],"Inhibits P-gp( IC50 =0.49uM), BCRP (IC50 = 0.013 µM). Did not inhibit OATP1B1, OATP1B3, OCT1, OCT2, OAT1, or OAT3. Not a substrate of OATP1B1, OATP1B3, or OCT1."
CO[C@]1(C(=O)N[C@@H](C)c2ccc(-n3cc(F)cn3)nc2)CC[C@H](c2nc(C)cc(Nc3cc(C)[nH]n3)n2)CC1 [Pralsetinib],reported to inhibit OATP1B1,OATP1B1 [1],reported to inhibit OATP1B1
same,pattern of efflux vs concentration in CCF assay,"OATP1B1 [2]; 1, 10 and 100 μmol/L",solely at lower concentrations
Cn1cnc2c(F)c(Nc3ccc(Br)cc3Cl)c(C(=O)NOCCO)cc21 [Selumetinib],pattern of efflux vs concentration in CCF assay,"OATP1B1 [2]; 1, 10 and 100 μmol/L",solely at lower concentrations
CNC(=O)c1cc(Oc2ccc(NC(=O)Nc3ccc(Cl)c(C(F)(F)F)c3)cc2)ccn1 [Sorafenib],previously claimed to be substrates of OATP1B1,OATP1B1 [1],substrates of OATP1B1
same,hit in CCF assay (efflux >50% relative to EβG),OATP1B1 [2],hits
CCN(CC)CCNC(=O)c1c(C)[nH]c(/C=C2\C(=O)Nc3ccc(F)cc32)c1C [Sunitinib],pattern of efflux vs concentration in CCF assay,OATP1B1 [2],clearly dependent on concentration
Cc1cc(Nc2ncnc3ccc(NC4=NC(C)(C)CO4)cc23)ccc1Oc1ccn2ncnc2c1 [Tucatinib],pattern of efflux vs concentration in CCF assay,"OATP1B1 [2]; 1, 10 and 100 μmol/L",solely at lower concentrations
COc1cc2c(Nc3ccc(Br)cc3F)ncnc2cc1OCC1CCN(C)CC1 [Vandetanib],pattern of efflux vs concentration in CCF assay,"OATP1B1 [2]; 1, 10 and 100 μmol/L",clearly dependent on concentration
OC[C@H]1OC(O)[C@H](O)[C@@H](O)[C@@H]1O (some centres unmarked) [glucose],efflux of preloaded radiolabeled EβG induced by control substrates,OATP1B1 [2],failed to induce efflux
CC[C@H](C)C(=O)O[C@H]1C[C@H](O)C=C2C=C[C@H](C)[C@H](CC[C@@H](O)C[C@@H](O)CC(=O)O)[C@H]21 [pravastatin],efflux of preloaded radiolabeled EβG induced by control substrates,OATP1B1 [2],induced significant efflux
CO[C@H]1/C=C/O[C@@]2(C)Oc3c(C)c(O)c4c(O)c(c(/C=N/N5CCN(C)CC5)c(O)c4c3C2=O)NC(=O)/C(C)=C\C=C\[C@H](C)[C@H](O)[C@@H](C)[C@@H](O)[C@@H](C)[C@H](OC(C)=O)[C@@H]1C [rifampin],efflux of preloaded radiolabeled EβG induced by control substrates,OATP1B1 [2],induced significant efflux
